Assay results: patent US5306712A, “Fungicidal silicon-containing compounds and their agrochemical and medicinal uses” (Sanyo Company, Limited, priority 1991, dated 1994)
Values after ≈ are worked out from the molar mass of the structure shown. Where two headings read alike, the source gives them in different places.

Columns and labels:
[1] = test system: Tyromyces palustris (Fungus E); test: Wood-preservative Activity (Antidecay); settings: paper disc, 30 μl of 300 ppm acetone solution, 25° C., 5 days
Description: (§4) A fungal disc of about 4 mm diameter was inoculated on an agar medium (2% by weight malt extract, 1% glucose, 0.3% peptone and 2% agar) in a petri dish of diameter 9 cm, by placing the disc on the center of the medium. Paper disc specimens were prepared by impregnating 30 μl of an acetone solution containing 300 ppm of the test compound into the disc (diameter 8 mm, thickness 0.7 mm) and then subjecting it to dry sterilization. The disc specimens were placed in a circle at about 1 cm distance from the fringe of the grown fungus, three days after the inoculation. The specimens were then maintained at 25° C. for 5 days, after which the antifungal activity was determined by visual observation of infection of the specimens by the fungus.
(§5) The procedure described in Experiment 7 was repeated, except that the fungi tested were Coriolus versicolor (Fungus D) and Tyromyces palustris (Fungus E), which are prescribed in JIS A-9201.

[2] = test system: Gliocladium virens (Fungus B); test: Antifungal Activity (paper disc on agar); settings: 30 μl of 300 ppm acetone solution, 25° C., 5 days
Description: (§6) A fungal disc of about 4 mm diameter was inoculated on an agar medium (2% by weight malt extract, 1% glucose, 0.3% peptone and 2% agar) in a petri dish of diameter 9 cm, by placing the disc on the center of the medium. Paper disc specimens were prepared by impregnating 30 μl of an acetone solution containing 300 ppm of the test compound into the disc (diameter 8 mm, thickness 0.7 mm) and then subjecting it to dry sterilization. The disc specimens were placed in a circle at about 1 cm distance from the fringe of the grown fungus, three days after the inoculation. The specimens were then maintained at 25° C. for 5 days, after which the antifungal activity was determined by visual observation of infection of the specimens by the fungus. The fungi tested were:
Gliocladium virens (Fungus B), and

Mucor mucedo = test: Antifungal Test (MIC, Sabouraud's agar); format: cell-based; settings: 120 h
Candida Albicans Sc. = test: Antifungal Test (MIC, Sabouraud's agar); format: cell-based; settings: 48 h, C. albica, 27° C., 2 days
Description: (§1) (i) Preparation of the test solution: The sample to be tested was examined to determine a suitable solvent from those listed below and the method of dissolution, and then the sample was weighed (about 10 mg), dissolved in the selected solvent and diluted with sterilized distilled water to a concentration of 500 μg/ml. Samples of the resulting solution were then subjected to sequential dilution to half the previous concentration to prepare I2 samples in which the concentration of active compound is progressively halved.
(§2) (ii) Test procedure for antifungal activity: Using Nunklon (Registered trademark) 24.hole plates (manufactured by Nunk K. K.), 0.1 ml each of the diluted solutions described above was poured into a hole, 0.9 ml of Sabouraud's agar medium was added to each hole, giving a total of 1 ml in each hole, and mixed to prepare the plate medium.
1 Candida Albicans Sc. (C. albica)
(§3) These test strains were inoculated by means of a slant on Sabouraud's agar medium, cultured at 27° C. for 2 days for the yeast strains or for 7 to 14 days for the mold strains, and, kept intact, preserved at 5° C. (subcultured every 1 month). On the day of the test, in the case of the yeast medium, physiological saline to which had previously been added Tween 80 in an amount of 0.1% (w/v) was added to each medium to prepare 10^6 cells/ml suspensions; and, in the case of the mold medium, 4 ml each of the solution above was added to the surface of the agar slant, the surface was rubbed slightly with a stirrer or a platinum loop to suspend the spores, and then, by filtration through a funnel on which 2 sterilized gauzes were placed one upon another, 10^6 cells/ml suspensions were prepared. Using an Eppendorf pipette, 0.1 ml each of these suspension preparations was inoculated and cultivated. The culture was conducted at 27° C. for 2 days for the three strains of yeast, for 5 days for molds 4 , 5 and 6, and for 7 days for molds 7 and 8 to determine minimal inhibitory concentrations of the test samples.

Candida albicans 427 = test: Antifungal Test (MIC, Sabouraud's agar); format: cell-based
[3] = test system: Cryptococcus neoformans 58063; test: Antifungal Test (MIC, Sabouraud's agar); format: cell-based; settings: Cryptococcus neoformans, 58063, 48 h; C. neofor; 27° C., 2 days
Description: as §1, §2
3 Cryptococcus neoformans 58063 (C. neofor)
as §3

[4] = test system: Aspergillus niger (Fungus A); test: Antifungal Activity (paper disc on agar); settings: 30 μl of 300 ppm acetone solution, 25° C., 5 days
Description: as §6
Aspergillus niger (Fungus A),

[5] = test system: Coriolus versicolor (Fungus D); test: Wood-preservative Activity (Antidecay); settings: paper disc, 30 μl of 300 ppm acetone solution, 25° C., 5 days
Description: as §4, §5

Aspergillus fumigatus = test: Antifungal Test (MIC, Sabouraud's agar); format: cell-based; settings: 120 h, A. fumiga, 27° C., 5 days
Description: as §1, §2
5 Aspergillus fumigatus (A. fumiga)
as §3

Trichophyton rubrum Sc. = test: Antifungal Test (MIC, Sabouraud's agar); format: cell-based; settings: 168 h
[6] = test system: Fusarium moliniforme (Fungus C); test: Antifungal Activity (paper disc on agar); settings: 30 μl of 300 ppm acetone solution, 25° C., 5 days
Description: as §6
Fusarium moliniforme (Fungus C).
The antifungal activity is indicated by the following ratings:

Microsporum gypseum = test: Antifungal Test (MIC, Sabouraud's agar); format: cell-based; settings: Nannizzia gypsea, 120 h
Description: as §1, §2
6 Microsporum gypseum (M. gypseu)
as §3

[7] = test system: Trichophyton mentagrophytes Sc.; test: Antifungal Test (MIC, Sabouraud's agar); format: cell-based; settings: 168 h, T. mentag, 27° C., 7 days
Description: as §1, §2
7 Trichophyton mentagrophytes Sc. (T. mentag)
as §3

| SMILES | wood-preservative (antidecay) activity, Fungus E [1] | antifungal activity, Fungus B [2] | MIC (Mucor mucedo; M. mucedo, 27° C., 5 days, read-out: MIC) | MIC (Candida Albicans Sc.) | MIC (Candida albicans 427; Candida albicans, 48 h, C. alb 427, 27° C., 2 days, read-out: MIC) | MIC [3] | antifungal activity, Fungus A [4] | wood-preservative (antidecay) activity, Fungus D [5] | MIC (Aspergillus fumigatus) | MIC (Trichophyton rubrum Sc.; T. rubrum, 27° C., 7 days, read-out: MIC) | antifungal activity, Fungus C [6] | MIC (Microsporum gypseum) | MIC [7] | MIC (Mucor mucedo) | MIC (Candida albicans 427; Candida albicans, 427, 48 h) | MIC (Trichophyton rubrum Sc.) |
| --- | --- | --- | --- | --- | --- | --- | --- | --- | --- | --- | --- | --- | --- | --- | --- | --- |
| C[Si](C)(C)CC(O)(Cn1cncn1)c1ccc(F)cc1F (centres unmarked) [Compound 1-12, 2-(2,4-Difluorophenyl)-1-(1H-1,2,4-triazole-1-yl)-3-trimethylsilyl-2-propanol] | + | + | 12.5 µg/mL (≈ 40.1 µM) | > 50 µg/mL | > 50 µg/mL | 6.2 µg/mL (≈ 19.9 µM) | - | + | 12.5 µg/mL (≈ 40.1 µM) | 0.8 µg/mL (≈ 2.57 µM) | + | 1.5 µg/mL (≈ 4.82 µM) | 0.8 µg/mL (≈ 2.57 µM) |  |  |  |
| C[Si](C)(C)CC(O)(Cn1cncn1)c1ccc(Cl)cc1 (centres unmarked) [Compound 1-2, 2-(4-Chlorophenyl)-1-(1H-1,2,4-triazol-1-yl)-3-trimethylsilyl-2-propanol] | + | + |  | > 50 µg/mL |  | 12.5 µg/mL (≈ 40.3 µM) | + | + | > 50 µg/mL |  | + | > 50 µg/mL | 3.1 µg/mL (≈ 10 µM) | > 50 µg/mL | > 50 µg/mL | 3.1 µg/mL (≈ 10 µM) |
